# According to the supplement of paper PMC8967900:
# Experiments:
# Assay in all cases: selective drug sensitivity score (sDSS, relative to normal bone marrow) (sDSS (score)); higher = more potent and effective on the cell line relative to normal bone marrow cells
# Conditions in all cases: 72 h
# PF-382 = system: PF-382
# MHH-CALL-2 = system: MHH-CALL-2
# TANOUE = system: TANOUE
# RCH-ACV = system: RCH-ACV
# MOLT-14 = system: MOLT-14
# COG-LL-355h = system: COG-LL-355h
# ALL-SIL = system: ALL-SIL
# HPB-ALL = system: HPB-ALL
# NALM-6 = system: NALM-6
# CCRF-CEM = system: CCRF-CEM
# COG-LL-332h = system: COG-LL-332h
# MOLT-4 = system: MOLT-4
# REH = system: REH
# MHH-CALL-4 = system: MHH-CALL-4
# P30-OHKUBO = system: P30-OHKUBO
# MN-60 = system: MN-60
# COG-LL-319h = system: COG-LL-319h
# MOLT-16 = system: MOLT-16
# KARPAS-45 = system: KARPAS-45
# COG-LL-317 = system: COG-LL-317
# 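Also: ALL cell lines in 384-well plates, five doses spanning 10,000-fold, each plate scaled between vehicle and 100 µmol/L benzalkonium chloride controls, sDSS an adapted area-under-curve metric.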
Compound,selective drug sensitivity score (PF-382),selective drug sensitivity score (MHH-CALL-2),selective drug sensitivity score (TANOUE),selective drug sensitivity score (RCH-ACV),selective drug sensitivity score (MOLT-14),selective drug sensitivity score (COG-LL-355h),selective drug sensitivity score (ALL-SIL),selective drug sensitivity score (HPB-ALL),selective drug sensitivity score (NALM-6),selective drug sensitivity score (CCRF-CEM),selective drug sensitivity score (COG-LL-332h),selective drug sensitivity score (MOLT-4),selective drug sensitivity score (REH),selective drug sensitivity score (MHH-CALL-4),selective drug sensitivity score (P30-OHKUBO),selective drug sensitivity score (MN-60),selective drug sensitivity score (COG-LL-319h),selective drug sensitivity score (MOLT-16),selective drug sensitivity score (KARPAS-45),selective drug sensitivity score (COG-LL-317)
Nc1nc(Nc2ccc3c(c2)CC[C@@H](N2CCCC2)CC3)nn1-c1cc2c(nn1)-c1ccccc1CCC2 [BGB324] (top concentration 10000 nM),0.32,-1.58,-3.88,5.02,1.62,3.82,3.12,-2.88,1.92,1.92,2.22,3.22,0.92,-2.88,5.82,-2.48,0.22,2.92,1.92,-0.38
N.N.[Cl][Pt][Cl] [Cisplatin] (top concentration 100000 nM),10.2,14.6,-3.16,20.5,18.6,5.84,8.94,7.14,0.64,15.3,19.4,16.2,10.8,10.7,16.7,-0.56,19.4,17.7,5.84,23.2
CONC(=O)c1ccccc1Nc1cc(Nc2cc(C)nn2C(C)C)ncc1Cl (top concentration 1000 nM),-0.94,-0.94,0.36,-0.94,-0.94,1.66,0.86,-0.94,0.56,-0.94,-0.94,-0.94,-0.94,-0.94,-0.94,-0.94,9.66,-0.94,-0.94,-0.94
Cc1cc(Nc2nc(N[C@@H](C)c3ncc(F)cn3)ncc2Cl)[nH]n1 [AZD1480] (top concentration 1000 nM),-4.08,-1.38,-4.28,-2.18,-4.28,0.42,-0.28,-3.48,-3.58,-3.98,-3.08,-3.28,-4.08,-0.78,-4.18,-4.28,-1.68,-4.28,0.32,-2.78
O=C(NCc1ccncc1)C12CC3CC(C1)CC(c1ccc(Cl)cc1)(C3)C2 (top concentration 50000 nM),0.48,4.38,-0.72,4.08,1.38,0.48,2.08,1.88,-0.22,2.28,2.08,1.98,5.18,2.78,3.18,-0.02,-0.62,1.58,3.28,-0.12
CN1C(=O)N[C@H](Cc2c[nH]c3c(Cl)cccc23)C1=O [Necrostatin_2] (top concentration 10000 nM),-0.08,-0.08,-0.08,-0.08,-0.08,-0.08,-0.08,-0.08,-0.08,-0.08,-0.08,-0.08,-0.08,-0.08,-0.08,-0.08,-0.08,-0.08,-0.08,-0.08
O=C(Nc1cnn2ccc(N3CCC[C@@H]3c3cc(F)ccc3F)nc12)N1CC[C@H](O)C1 [Larotrectinib] (top concentration 1000 nM),-0.62,-0.52,-0.62,1.48,-0.62,0.48,-0.62,4.18,0.48,-0.62,-0.62,-0.62,-0.62,-0.62,-0.52,-0.62,3.78,-0.62,-0.62,-0.62
CN(C)C(=O)c1ccc(S(=O)(=O)c2ccc(NC(=O)[C@@](C)(O)C(F)(F)F)c(Cl)c2)cc1 [AZD7545] (top concentration 10000 nM),3.1,-0.2,3.4,3,1,-0.2,3.4,0.3,3.7,0,0.5,1.6,4.4,-0.2,0.6,3.3,0.8,5.3,2.9,0.7
Cc1cc2c(F)c(Oc3ncnn4cc(OC[C@@H](C)O)c(C)c34)ccc2[nH]1 [Brivanib] (top concentration 1000 nM),0.06,-0.04,-0.04,1.96,0.26,-0.04,-0.04,-0.04,-0.04,-0.04,0.16,-0.04,0.96,-0.04,-0.04,2.76,-0.04,-0.04,0.06,-0.04
CC1(C)CCC(CN2CCN(c3ccc(C(=O)NS(=O)(=O)c4ccc(NCC5CCOCC5)c([N+](=O)[O-])c4)c(Oc4cnc5[nH]ccc5c4)c3)CC2)=C(c2ccc(Cl)cc2)C1 [Venetoclax] (top concentration 1000 nM),-4.1,28.7,-4.4,-1.3,8,31.2,16.5,-0.9,4.4,-1.8,-3.3,8.88e-16,0.9,14.2,21,-4.4,28.8,6,9.5,2.2
N#CC1(c2ccc(NC(=O)c3cccnc3NCc3ccncc3)cc2)CCCC1 [Apatinib] (top concentration 10000 nM),0,1.2,0,1.1,0,0,0,1,0.4,0,0,0,0.1,0,0,0,0.6,0,0,0
C=CC[C@@H]1/C=C(\C)C[C@H](C)C[C@H](OC)[C@H]2O[C@@](O)(C(=O)C(=O)N3CCCC[C@H]3C(=O)O[C@H](/C(C)=C/[C@@H]3CC[C@@H](O)[C@H](OC)C3)[C@H](C)[C@@H](O)CC1=O)[C@H](C)C[C@@H]2OC [Tacrolimus] (top concentration 10000 nM),0.78,24.6,-0.72,10.7,1.38,3.18,1.08,0.28,0.98,2.78,0.18,1.38,2.68,-0.12,16.1,-0.32,12.7,12.1,2.18,0.68
CCNc1nc(Nc2cc(F)c(C(=O)N3CCOCC3)cc2OC)ncc1C(F)(F)F [GNE-7915] (top concentration 1000 nM),-0.06,1.74,-0.06,-0.06,-0.06,-0.06,-0.06,-0.06,-0.06,-0.06,-0.06,-0.06,-0.06,-0.06,-0.06,-0.06,-0.06,-0.06,-0.06,0.34
COc1cc(Nc2c(C#N)cnc3cc(OCCCN4CCN(C)CC4)c(OC)cc23)c(Cl)cc1Cl [Bosutinib] (top concentration 10000 nM),4.76,7.66,-7.74,5.76,1.86,1.86,26.7,-2.64,-1.24,-0.74,6.56,-0.64,-1.94,-3.14,3.56,-3.24,1.66,0.16,2.46,-2.64
C[C@H]1CN(C2COC2)CCN1c1ccc(Nc2cc(-c3ccnc(N4CCn5c(cc6c5CC(C)(C)C6)C4=O)c3CO)cn(C)c2=O)nc1 [GDC-0853] (top concentration 1000 nM),0,0,0,0,0,0,1.6,0.4,0,0,0,0,0.2,0.2,0,0,2.8,0,0,0
COc1cc2c(NC3CCN(C(C)C)CC3)nc(C3CCCCC3)nc2cc1OCCCN1CCCC1 [UNC0638] (top concentration 10000 nM),-0.54,-2.84,-5.14,0.66,-0.94,1.86,2.16,-3.44,-3.64,0.46,0.66,-3.74,-0.24,-3.94,0.86,-2.64,8.26,-1.04,2.36,0.06
COc1cc2ncnc(Nc3ccc(F)c(Cl)c3)c2cc1OCCCN1CCOCC1 [Gefitinib] (top concentration 10000 nM),0.26,1.86,-1.84,1.66,1.96,0.96,3.66,-1.14,-0.44,0.56,2.56,-0.34,2.36,-3.04,-0.04,0.66,5.66,3.36,3.36,0.36
Cc1ccc(NS(=O)(=O)c2cccc(C#N)c2)c2[nH]cc(C#N)c12 [E7820] (top concentration 50000 nM),10.2,19.4,-6.28,23.2,21.3,6.22,20.2,11,19.2,9.12,22.1,1.82,13.7,7.62,17.3,-1.88,18,22.6,20.1,21.9
